Results: patent US20230114728A1 (Venatorx Pharmaceuticals, Inc., priority 2019, published 2023)

Key:
E. coli K12 PBP1a = biological target: T1, E. coli K12 PBP1a (Escherichia coli, UniProt P02918); assay: Radioligand competition binding assay with 14C-labeled boronic acid probe, E. coli PBP1a; conditions: PBP1a/PBP1b at 0.1 μM, Compound A at 20 μM, read-out: EC50 (the concentration of inhibitor required to reduce binding of Compound A by 50%)
T1 construct: made in house
Text: (§1) Example II: Experimental Method to Assess Binding to Penicillin-Binding Proteins: Radioligand Competition Binding Assay
(§2) To determine the ability of boronic acid-based test PBP inhibitors to bind Penicillin Binding Proteins (PBPs), a radio-labelled boronic acid PBP inhibitor:
was used in competition binding assays to determine boronic acid PBP inhibitor binding to PBP1a or PBP1b from Escherichia coli. PBP1a and PBP1b were purified as described previously (Bertsche, U.; et al., J Biol. Chem. 2005, 280 (45), 38096-38101; Born, P.; et al., J Biol. Chem. 2006. 281 (37), 26985-26993). To establish assay conditions for competition binding, an enzyme titration/saturation binding experiment was performed. Saturation binding was performed in a buffer comprised of 20 mM Tris (pH 7.5), 500 mM NaCl and 0.1% (v/v) TritonX-100, with PBP1a/PBP1b at a final concentration of 0.1 μM and Compound A at final concentrations ranging from 0-100 μM. […] The flow through, containing PBP bound with Compound A, was recovered and 100 μL mixed with 5 mL of UltimaGold liquid scintillation cocktail (Perkin Elmer), and the radioactivity counted using a Beckman Coulter LS 6500 Multipurpose scintillation counter. […] The flow through was recovered and 100 μl mixed with 5 ml of UltimaGold liquid scintillation cocktail and the radioactivity counted. […]

E. coli K12 PBP1b = biological target: T2, E. coli K12 PBP1b (Escherichia coli, UniProt P02919); assay: Radioligand competition binding assay with 14C-labeled boronic acid probe, E. coli PBP1b; conditions: PBP1a/PBP1b at 0.1 μM, Compound A at 20 μM; E. coli PBP1b; read-out: EC50 (the concentration of inhibitor required to reduce binding of Compound A by 50%)
T2 construct: made in house
Text: as §1, §2
was used in competition binding assays to determine boronic acid PBP inhibitor binding to PBP1a or PBP1b from Escherichia coli. PBP1a and PBP1b were purified as described previously (Bertsche, U.; et al., J Biol. Chem. 2005, 280 (45), 38096-38101; Born, P.; et al., J Biol. Chem. 2006. 281 (37), 26985-26993). To establish assay conditions for competition binding, an enzyme titration/saturation binding experiment was performed. Saturation binding was performed in a buffer comprised of 20 mM Tris (pH 7.5), 500 mM NaCl and 0.1% (v/v) TritonX-100, with PBP1a/PBP1b at a final concentration of 0.1 μM and Compound A at final concentrations ranging from 0-100 μM. Mixtures were incubated for 60 minutes, then applied to Zeba Spin Desalting columns or plates (ThermoFisher Scientific) and centrifuged at 1000-1500×g for 2 minutes. The flow through, containing PBP bound with Compound A, was recovered and 100 μL mixed with 5 mL of UltimaGold liquid scintillation cocktail (Perkin Elmer), and the radioactivity counted using a Beckman Coulter LS 6500 Multipurpose scintillation counter. PBP binding of Compound A approached saturation at 20 μM of ^14C-labeled probe. The competition binding assay was validated using the beta-lactam ampicillin, with Compound A at a final concentration of 20 μM, PBP1a/PBP1b at a final concentration of 0.1 μM. PBP1a/PBP1b was incubated with ampicillin in a 96-well microplate for 60 minutes, then Compound A was added and the mixtures incubated for an additional 60 minutes. The mixtures were then applied to Zeba Spin desalting plates and centrifuged at 1000×g for 2 minutes. The flow through was recovered and 100 μl mixed with 5 ml of UltimaGold liquid scintillation cocktail and the radioactivity counted. […] Binding assays with boronic acid PBP inhibitors were performed in an identical fashion. […]

T2 sequence (P02919 whole entry): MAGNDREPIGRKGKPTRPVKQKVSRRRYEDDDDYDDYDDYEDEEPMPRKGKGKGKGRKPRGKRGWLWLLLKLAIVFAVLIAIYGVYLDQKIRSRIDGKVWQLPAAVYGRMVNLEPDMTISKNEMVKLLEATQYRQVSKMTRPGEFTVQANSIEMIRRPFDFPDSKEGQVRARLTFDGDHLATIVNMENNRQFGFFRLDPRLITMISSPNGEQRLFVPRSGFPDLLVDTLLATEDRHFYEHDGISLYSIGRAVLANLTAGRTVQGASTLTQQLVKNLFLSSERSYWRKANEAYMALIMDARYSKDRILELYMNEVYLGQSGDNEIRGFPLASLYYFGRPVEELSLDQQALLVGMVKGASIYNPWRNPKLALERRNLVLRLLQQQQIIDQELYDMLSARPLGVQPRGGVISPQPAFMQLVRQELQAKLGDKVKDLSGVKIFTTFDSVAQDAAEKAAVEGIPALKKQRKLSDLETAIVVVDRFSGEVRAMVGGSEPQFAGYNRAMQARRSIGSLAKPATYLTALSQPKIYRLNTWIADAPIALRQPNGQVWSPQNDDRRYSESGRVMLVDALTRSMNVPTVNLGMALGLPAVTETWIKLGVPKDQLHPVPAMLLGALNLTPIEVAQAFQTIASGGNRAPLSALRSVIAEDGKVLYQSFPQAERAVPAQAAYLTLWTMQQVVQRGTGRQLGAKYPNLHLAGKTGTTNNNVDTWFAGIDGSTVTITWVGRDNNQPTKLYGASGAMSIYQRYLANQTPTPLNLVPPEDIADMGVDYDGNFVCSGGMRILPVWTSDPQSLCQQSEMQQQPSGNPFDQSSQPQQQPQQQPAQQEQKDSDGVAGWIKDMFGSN
T1 sequence (P02918 whole entry): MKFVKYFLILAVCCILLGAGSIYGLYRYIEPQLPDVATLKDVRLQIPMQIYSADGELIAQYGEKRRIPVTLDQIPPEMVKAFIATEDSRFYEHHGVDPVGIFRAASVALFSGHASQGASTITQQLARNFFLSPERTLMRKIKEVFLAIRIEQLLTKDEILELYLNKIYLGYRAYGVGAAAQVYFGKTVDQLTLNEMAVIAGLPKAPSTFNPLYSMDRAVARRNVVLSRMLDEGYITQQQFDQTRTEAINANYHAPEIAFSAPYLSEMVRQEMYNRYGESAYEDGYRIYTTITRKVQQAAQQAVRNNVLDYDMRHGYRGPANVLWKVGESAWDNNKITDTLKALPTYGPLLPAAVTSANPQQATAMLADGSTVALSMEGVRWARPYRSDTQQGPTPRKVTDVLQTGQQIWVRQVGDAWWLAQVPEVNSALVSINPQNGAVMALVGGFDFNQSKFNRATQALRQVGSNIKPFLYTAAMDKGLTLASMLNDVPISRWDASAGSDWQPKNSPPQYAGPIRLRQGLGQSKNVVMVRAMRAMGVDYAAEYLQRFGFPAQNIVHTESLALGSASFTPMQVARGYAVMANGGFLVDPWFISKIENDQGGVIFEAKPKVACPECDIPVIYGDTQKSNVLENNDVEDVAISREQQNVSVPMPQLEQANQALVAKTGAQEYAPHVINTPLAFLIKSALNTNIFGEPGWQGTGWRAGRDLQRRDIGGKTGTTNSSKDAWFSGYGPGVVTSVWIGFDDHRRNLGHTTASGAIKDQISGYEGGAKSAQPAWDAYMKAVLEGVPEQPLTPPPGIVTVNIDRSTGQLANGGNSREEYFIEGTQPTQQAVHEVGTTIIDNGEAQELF

Q: With `CC1(C)S[C@@H]2[C@H](NC(=O)[C@H](N)c3ccccc3)C(=O)N2[C@H]1C(=O)O` [ampicillin, reference compound] as the molecule, how does the EC50 (E. coli K12 PBP1a) read?
A: < 0.5 µM

Q: And the EC50 (E. coli K12 PBP1b)?
A: < 0.5 µM
